Test results as given in patent publication US20150105252A1, “SUBSTITUTED PYRAZOLES AS HERBICIDES” (E I DU PONT DE NEMOURS AND COMPANY, priority 2013, published 2015).

Assays:
[1] = tested on: johnsongrass; experiment: Test C preemergence; type: in vivo, Sorghum halepense; conditions: for Plant response rating (scale of 0 to 100), Johnsongrass: Preemergence, 250 g ai/ha
Source text: (§1) Seeds of plant species selected from blackgrass (Alopecurus myosuroides), ryegrass, Italian (Italian ryegrass, Lolium multiflorum), wheat (winter wheat, Triticum aestivum), galium (catchweed bedstraw, Galium aparine), corn (Zea mays), crabgrass, large (large crabgrass, Digitaria sanguinalis), foxtail, giant (giant foxtail, Setaria faberii), johnsongrass (Sorghum halepense), lambsquarters (Chenopodium album), morningglory (Ipomoea coccinea), nutsedge, yellow (yellow nutsedge, Cyperus esculentus), pigweed (redroot pigweed, Amaranthus retroflexus), ragweed (common ragweed, Ambrosia elation), soybean (Glycine max), barnyardgrass (Echinochloa crus-galli), oilseed rape (Brassica napus), waterhemp (common waterhemp, Amaranthus rudis), oat, wild (wild oat, Avena fatua), kochia (Kochia scoparia), Surinam grass (Brachiaria decumbens), foxtail, green (green foxtail, Setaria viridis), goosegrass (Eleusine indica), bromegrass, downy (downy bromegrass, Bromus tectorum), nightshade (eastern black nightshade, Solanum ptycanthum), cocklebur (common cocklebur, Xanthium strumarium), cupgrass, woolly (woolly cupgrass, Eriochloa villosa), bermudagrass (Cynodon dactylon), sunflower, (common oilseed sunflower, Helianthus annuus), Russian thistle (Salsola kali), and velvetleaf (Abutilon theophrasti) were planted into a blend of loam soil and sand and treated preemergence with test chemicals formulated in a non-phytotoxic solvent mixture which included a surfactant.
(§2) At the same time, plants selected from these crop and weed species and also chickweed (common chickweed, Stellaria media), canarygrass (littleseed canarygrass, Phalaris minor), and deadnettle (henbit deadnettle, Lamium amplexicaule), were planted in pots containing Redi-Earth® planting medium (Scotts Company, 14111 Scottslawn Road, Marysville, Ohio 43041) comprising spaghnum peat moss, vermiculite, wetting agent and starter nutrients and treated with postemergence applications of test chemicals formulated in the same manner. Plants ranged in height from 2 to 18 cm (1- to 4-leaf stage) for postemergence treatments. Treated plants and controls were maintained in a greenhouse for 13 to 15 days, after which time all species were compared to controls and visually evaluated. Plant response ratings, summarized in Table C, are based on a scale of 0 to 100 where 0 is no effect and 100 is complete control. A dash (-) response means no test result.

[2] = tested on: foxtail, giant; experiment: Test A preemergence; type: in vivo, Setaria faberii
Summary of the method: (§3)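 Pre- and postemergence greenhouse test; loam+sand; cpd in non-phytotox. solvent/surfactant; post at 1–2 leaf, 2–10 cm; visual score ~10 d, 0 = none, 100 = complete control.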

[3] = tested on: velvetleaf; experiment: Test C preemergence; type: in vivo, Abutilon theophrasti; conditions: for Plant response rating (scale of 0 to 100), Velvetleaf: Preemergence, 250 g ai/ha
Source text: as §1, §2

[4] = tested on: waterhemp; experiment: Test C preemergence; type: in vivo, Amaranthus rudis; conditions: for Plant response rating (scale of 0 to 100), Waterhemp: Preemergence, 250 g ai/ha
Source text: as §1, §2

[5] = tested on: barnyardgrass; experiment: Test C preemergence; type: in vivo, Echinochloa crus-galli; conditions: for Plant response rating (scale of 0 to 100), Barnyardgrass: Preemergence, 250 g ai/ha
Source text: as §1, §2

[6] = tested on: corn; experiment: Test C preemergence; type: in vivo, Zea mays; conditions: for Plant response rating (scale of 0 to 100), Corn: Preemergence, 250 g ai/ha
Source text: as §1, §2

[7] = tested on: corn; experiment: Test A preemergence; type: in vivo, Zea mays; conditions: 0 to 100 scale
Summary of the method: as §3

[8] = tested on: pigweed; experiment: Test C preemergence; type: in vivo, Amaranthus retroflexus; conditions: for Plant response rating (scale of 0 to 100), Pigweed: Preemergence, 250 g ai/ha
Source text: as §1, §2

[9] = tested on: wheat; experiment: Test A postemergence; type: in vivo, Triticum aestivum
Summary of the method: as §3

[10] = tested on: pigweed; experiment: Test A preemergence; type: in vivo, Amaranthus retroflexus
Summary of the method: as §3

[11] = tested on: crabgrass, large; experiment: Test C preemergence; type: in vivo, Digitaria sanguinalis; conditions: for Plant response rating (scale of 0 to 100), Crabgrass, Large: Preemergence, 250 g ai/ha
Source text: as §1, §2

[12] = tested on: morningglory; experiment: Test C preemergence; type: in vivo, Ipomoea coccinea; conditions: for Morningglory plant response rating: preemergence
Source text: as §1, §2

[13] = tested on: wheat; experiment: Test C preemergence; type: in vivo, Triticum aestivum; conditions: for Wheat plant response rating: preemergence
Source text: as §1, §2

[14] = preemergence, 31 g ai/ha, visual rating, scale 0 to 100 (0 no effect, 100 complete control), 13 to 15 days
[15] = preemergence, 62 g ai/ha, 13 to 15 days, scale 0 to 100, 0 = no effect, 100 = complete control
[16] = preemergence, 125 g ai/ha, scale 0 to 100, 0 is no effect, 100 is complete control
[17] = Preemergence, 500 g ai/ha, 0 to 100 scale, 0 no effect, 100 complete control
[18] = preemergence, 125 g ai/ha, visual injury, 0 to 100 scale, approx. 10 days
[19] = preemergence, 31 g ai/ha, scale 0 to 100 (0 no effect, 100 complete control), 13 to 15 days
[20] = postemergence, 125 g ai/ha, about 10 days, visual rating on 0 to 100 scale (0 no effect, 100 complete control)
[21] = preemergence, 62 g ai/ha, scale 0 to 100 (0 no effect, 100 complete control), 13 to 15 days
[22] = 31 g ai/ha, visual rating, scale 0 to 100 (0 no effect, 100 complete control), 13 to 15 days
[23] = 62 g ai/ha, scale 0 to 100 (0 no effect, 100 complete control), 13 to 15 days
[24] = 125 g ai/ha, scale 0 to 100, 0 is no effect, 100 is complete control
[25] = preemergence, 500 g ai/ha, visual injury after approx. 10 days, 0 to 100 scale (0 no effect, 100 complete control)

CCc1cc(C(=O)NCC(F)(F)F)nn1Cc1ccnc(C(F)(F)F)c1 [Compound 78, 5-ethyl-N-(2,2,2-trifluoroethyl)-1-[[(2-trifluoromethyl)-4-pyridinyl]methyl]-1H-pyrazole-3-carboxamide]
Plant response rating (scale of 0 to 100), Johnsongrass [1]: 100
Johnsongrass plant response rating [1, 14]: 85
Plant response rating, Johnsongrass [1, 15]: 95
Johnsongrass plant response rating [1, 16]: 100
Foxtail, Giant plant response rating [2, 17]: 100
Foxtail, Giant plant response rating [2, 18]: 100
Plant response rating (scale of 0 to 100), Velvetleaf [3]: 100
Velvetleaf plant response rating [3, 14]: 80
Plant response rating, Velvetleaf [3, 15]: 100
Velvetleaf plant response rating [3, 16]: 100
Plant response rating (scale of 0 to 100), Waterhemp [4]: 100
Waterhemp plant response rating [4, 14]: 100
Plant response rating, Waterhemp [4, 15]: 100
Waterhemp plant response rating [4, 16]: 100
Plant response rating (scale of 0 to 100), Barnyardgrass [5]: 100
Barnyardgrass plant response rating [5, 19]: 100
Plant response rating, Barnyardgrass [5, 15]: 100
Barnyardgrass plant response rating [5, 16]: 100
Plant response rating (scale of 0 to 100), Corn [6]: 98
Corn plant response rating [6, 14]: 60
Plant response rating, Corn [6, 15]: 65
Corn plant response rating [6, 16]: 95
Corn plant response rating ([7]; Preemergence, 500 g ai/ha, 0 no effect, 100 complete control): 70
Corn plant response rating ([7]; preemergence, 125 g ai/ha, visual injury, approx. 10 days): 60
Plant response rating (scale of 0 to 100), Pigweed [8]: 100
Pigweed plant response rating [8, 14]: 100
Plant response rating, Pigweed [8, 15]: 100
Pigweed plant response rating [8, 16]: 100
Wheat plant response rating ([9]; Postemergence, 500 g ai/ha, visual rating after approx. 10 days, 0 to 100 scale (0 no effect, 100 complete control)): 80
Wheat plant response rating [9, 20]: 70
Pigweed plant response rating [10, 17]: 100
Pigweed plant response rating [10, 18]: 100
Plant response rating (scale of 0 to 100), Crabgrass, Large [11]: 100
Crabgrass, Large plant response rating [11, 14]: 100
Plant response rating, Crabgrass, Large [11, 15]: 100
Crabgrass, Large plant response rating [11, 16]: 100

CCONC(=O)c1cc(CC)n(Cc2cc(C(F)(F)F)no2)n1 [Compound 125]
Plant response rating (scale of 0 to 100), Johnsongrass [1]: 10
Johnsongrass plant response rating [1, 14]: 0
Johnsongrass plant response rating [1, 21]: 0
Johnsongrass plant response rating [1, 16]: 5
Plant response rating (scale of 0 to 100), Morningglory ([12]; Preemergence, 250 g ai/ha): 95
Morningglory plant response rating [12, 22]: 45
Morningglory plant response rating [12, 23]: 50
Morningglory plant response rating [12, 24]: 75
Foxtail, Giant plant response rating [2, 18]: 80
Foxtail, Giant plant response rating [2, 25]: 100
Plant response rating (scale of 0 to 100), Velvetleaf [3]: 40
Velvetleaf plant response rating [3, 14]: 20
Velvetleaf plant response rating [3, 21]: 20
Velvetleaf plant response rating [3, 16]: 30
Plant response rating (scale of 0 to 100), Waterhemp [4]: 90
Waterhemp plant response rating [4, 14]: 65
Waterhemp plant response rating [4, 21]: 65
Waterhemp plant response rating [4, 16]: 85
Plant response rating (scale of 0 to 100), Barnyardgrass [5]: 100
Barnyardgrass plant response rating [5, 19]: 5
Barnyardgrass plant response rating [5, 21]: 50
Barnyardgrass plant response rating [5, 16]: 80
Plant response rating (scale of 0 to 100), Corn [6]: 45
Corn plant response rating [6, 14]: 0
Corn plant response rating [6, 21]: 5
Corn plant response rating [6, 16]: 10
Plant response rating (scale of 0 to 100), Pigweed [8]: 100
Pigweed plant response rating [8, 14]: 65
Pigweed plant response rating [8, 21]: 75
Pigweed plant response rating [8, 16]: 90
Wheat plant response rating ([9]; Postemergence, 500 g ai/ha, 0 to 100 scale (0 no effect, 100 complete control)): 60
Wheat plant response rating [9, 20]: 0
Pigweed plant response rating [10, 18]: 100
Pigweed plant response rating [10, 25]: 100
Plant response rating (scale of 0 to 100), Wheat ([13]; Preemergence, 250 g ai/ha): 50
Wheat plant response rating [13, 22]: 0
Wheat plant response rating [13, 23]: 0
Wheat plant response rating [13, 24]: 5
Plant response rating (scale of 0 to 100), Crabgrass, Large [11]: 95
Crabgrass, Large plant response rating [11, 14]: 5
Crabgrass, Large plant response rating [11, 21]: 25
Crabgrass, Large plant response rating [11, 16]: 75
